Measurements published in ChEMBL document CHEMBL1149131, “QSAR study of anticonvulsant negative allosteric modulators of the AMPA receptor” (J Med Chem, 2004).

Legend:
[1] = target: T1, Glutamate receptor ionotropic, AMPA (Mus musculus) (UniProt P23819+P23818+Q9Z2W8+Q9Z2W9); test: In vivo anticonvulsant activity was measured as median effective dose required to prevent tonic phase of seizure in DBA/2 mice; type: functional, organism-based
[2] = target: T1, Glutamate receptor ionotropic, AMPA (Mus musculus); test: In vivo anticonvulsant activity was measured as median effective dose required to prevent clonic phase of seizure in DBA/2 mice; type: functional, organism-based

T1 sequence (P23818 whole entry, looked up): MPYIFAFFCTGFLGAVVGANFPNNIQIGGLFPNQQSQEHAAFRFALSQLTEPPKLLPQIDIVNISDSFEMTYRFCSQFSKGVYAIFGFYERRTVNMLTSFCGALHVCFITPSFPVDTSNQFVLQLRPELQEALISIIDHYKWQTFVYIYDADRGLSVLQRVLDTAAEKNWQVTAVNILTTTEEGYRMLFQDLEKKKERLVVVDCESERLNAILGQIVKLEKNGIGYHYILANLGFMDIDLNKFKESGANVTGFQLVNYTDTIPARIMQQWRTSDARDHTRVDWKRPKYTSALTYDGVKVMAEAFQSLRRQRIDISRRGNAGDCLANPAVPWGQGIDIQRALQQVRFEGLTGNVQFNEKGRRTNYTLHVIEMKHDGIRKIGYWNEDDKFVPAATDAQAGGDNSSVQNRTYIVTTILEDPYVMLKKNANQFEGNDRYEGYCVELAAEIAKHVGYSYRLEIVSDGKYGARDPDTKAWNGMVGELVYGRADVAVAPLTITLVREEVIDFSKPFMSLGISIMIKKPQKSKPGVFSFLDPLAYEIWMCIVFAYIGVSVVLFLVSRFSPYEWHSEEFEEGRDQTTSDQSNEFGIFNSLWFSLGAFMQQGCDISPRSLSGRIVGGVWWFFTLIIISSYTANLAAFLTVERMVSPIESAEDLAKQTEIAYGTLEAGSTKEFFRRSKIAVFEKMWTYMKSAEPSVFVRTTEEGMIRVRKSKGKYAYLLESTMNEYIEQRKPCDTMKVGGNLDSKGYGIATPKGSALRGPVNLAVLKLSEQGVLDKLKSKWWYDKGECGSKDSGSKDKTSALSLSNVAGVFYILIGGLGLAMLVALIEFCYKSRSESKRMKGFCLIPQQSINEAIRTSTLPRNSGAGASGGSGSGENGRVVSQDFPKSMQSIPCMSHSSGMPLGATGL
T1 sequence (P23819 whole entry, looked up): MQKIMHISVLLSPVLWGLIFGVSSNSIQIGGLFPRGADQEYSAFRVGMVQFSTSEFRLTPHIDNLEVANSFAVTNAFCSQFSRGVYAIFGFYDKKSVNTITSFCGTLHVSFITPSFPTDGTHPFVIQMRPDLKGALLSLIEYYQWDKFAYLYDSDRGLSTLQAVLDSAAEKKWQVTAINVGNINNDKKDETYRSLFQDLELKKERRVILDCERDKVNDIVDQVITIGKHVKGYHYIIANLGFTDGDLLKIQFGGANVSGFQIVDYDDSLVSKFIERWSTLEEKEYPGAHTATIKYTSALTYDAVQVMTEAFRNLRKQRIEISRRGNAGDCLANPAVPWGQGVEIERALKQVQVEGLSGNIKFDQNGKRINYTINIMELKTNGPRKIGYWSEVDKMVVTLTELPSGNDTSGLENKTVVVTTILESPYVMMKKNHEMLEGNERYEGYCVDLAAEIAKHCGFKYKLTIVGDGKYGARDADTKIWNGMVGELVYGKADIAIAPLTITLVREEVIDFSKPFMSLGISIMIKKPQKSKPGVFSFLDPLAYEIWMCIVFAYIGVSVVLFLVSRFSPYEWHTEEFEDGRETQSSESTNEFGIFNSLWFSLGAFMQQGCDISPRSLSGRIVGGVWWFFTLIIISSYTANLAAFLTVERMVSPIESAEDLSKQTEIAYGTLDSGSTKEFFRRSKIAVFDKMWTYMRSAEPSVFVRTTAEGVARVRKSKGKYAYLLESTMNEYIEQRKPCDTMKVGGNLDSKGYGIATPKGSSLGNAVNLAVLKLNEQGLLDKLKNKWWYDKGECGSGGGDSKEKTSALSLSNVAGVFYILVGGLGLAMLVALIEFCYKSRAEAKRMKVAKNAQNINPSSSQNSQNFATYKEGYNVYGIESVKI
T1 sequence (Q9Z2W8 whole entry, looked up): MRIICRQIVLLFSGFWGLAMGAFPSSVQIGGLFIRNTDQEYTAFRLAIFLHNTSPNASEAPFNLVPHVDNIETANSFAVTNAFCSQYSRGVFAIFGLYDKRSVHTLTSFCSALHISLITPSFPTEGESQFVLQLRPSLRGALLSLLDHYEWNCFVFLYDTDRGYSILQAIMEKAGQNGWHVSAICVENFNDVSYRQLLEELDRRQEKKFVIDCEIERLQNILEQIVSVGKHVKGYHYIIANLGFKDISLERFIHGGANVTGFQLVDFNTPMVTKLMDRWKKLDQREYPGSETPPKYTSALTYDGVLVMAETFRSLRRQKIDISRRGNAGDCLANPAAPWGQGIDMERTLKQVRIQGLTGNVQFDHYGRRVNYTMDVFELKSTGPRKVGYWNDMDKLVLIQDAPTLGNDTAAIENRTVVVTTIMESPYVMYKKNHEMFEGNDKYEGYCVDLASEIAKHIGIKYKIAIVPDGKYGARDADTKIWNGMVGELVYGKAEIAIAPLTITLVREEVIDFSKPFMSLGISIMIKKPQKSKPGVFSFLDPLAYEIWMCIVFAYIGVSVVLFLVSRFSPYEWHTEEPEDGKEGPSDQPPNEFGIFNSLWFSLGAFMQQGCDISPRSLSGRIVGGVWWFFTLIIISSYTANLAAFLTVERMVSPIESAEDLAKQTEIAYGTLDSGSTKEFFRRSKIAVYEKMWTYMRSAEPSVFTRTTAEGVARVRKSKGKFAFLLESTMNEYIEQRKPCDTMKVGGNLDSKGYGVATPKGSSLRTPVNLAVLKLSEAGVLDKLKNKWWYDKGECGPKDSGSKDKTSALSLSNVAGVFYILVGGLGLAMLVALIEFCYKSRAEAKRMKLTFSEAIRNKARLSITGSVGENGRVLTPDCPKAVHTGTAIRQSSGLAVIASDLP
T1 sequence (Q9Z2W9 whole entry, looked up): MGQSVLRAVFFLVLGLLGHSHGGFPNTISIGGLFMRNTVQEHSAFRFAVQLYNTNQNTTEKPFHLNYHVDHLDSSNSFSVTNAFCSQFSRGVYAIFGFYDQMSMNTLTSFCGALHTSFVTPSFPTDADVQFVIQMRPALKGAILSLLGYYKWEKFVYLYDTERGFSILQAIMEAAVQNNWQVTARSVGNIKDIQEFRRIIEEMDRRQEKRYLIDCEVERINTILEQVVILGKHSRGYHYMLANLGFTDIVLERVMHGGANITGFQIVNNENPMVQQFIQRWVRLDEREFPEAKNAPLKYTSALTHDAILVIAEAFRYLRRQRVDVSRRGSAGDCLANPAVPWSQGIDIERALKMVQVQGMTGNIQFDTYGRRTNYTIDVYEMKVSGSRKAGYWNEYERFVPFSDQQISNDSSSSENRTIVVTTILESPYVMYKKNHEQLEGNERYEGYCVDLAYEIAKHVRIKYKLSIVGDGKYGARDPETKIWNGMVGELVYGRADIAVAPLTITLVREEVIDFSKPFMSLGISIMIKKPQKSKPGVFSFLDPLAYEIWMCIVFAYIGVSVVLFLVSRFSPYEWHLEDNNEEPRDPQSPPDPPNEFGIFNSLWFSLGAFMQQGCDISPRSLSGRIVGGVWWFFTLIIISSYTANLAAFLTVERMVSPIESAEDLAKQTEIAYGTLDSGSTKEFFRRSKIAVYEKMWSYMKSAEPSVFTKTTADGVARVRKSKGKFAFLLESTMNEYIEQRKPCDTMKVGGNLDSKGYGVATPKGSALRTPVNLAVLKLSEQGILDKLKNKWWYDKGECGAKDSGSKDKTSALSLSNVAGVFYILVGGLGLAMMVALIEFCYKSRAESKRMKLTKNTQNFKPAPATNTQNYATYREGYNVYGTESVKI

COc1cc2c(cc1OC)C(c1ccc(Br)cc1)=NNC(=O)C2
ED50 [1]: 82.5 µmol/kg | ED50 [2]: 110 µmol/kg

COc1cc2c(cc1OC)C(c1ccc(N)cc1)=NN(C)C(=O)C2
ED50 [1]: 43.7 µmol/kg | ED50 [2]: 50.2 µmol/kg

COc1cc2c(cc1OC)C(c1ccc([N+](=O)[O-])cc1)=NN(C)C(=S)C2
ED50 [1]: 81.5 µmol/kg | ED50 [2]: 103 µmol/kg

COc1cc2c(O)nnc(-c3ccc(NC(C)=O)cc3)c2cc1OC
ED50 [1]: 48.8 µmol/kg | ED50 [2]: 62 µmol/kg

COc1cc2c(cc1OC)C(c1cccc([N+](=O)[O-])c1)N(C(C)=O)CC2 (configuration not stated)
ED50 [1]: 12.7 µmol/kg | ED50 [2]: 37.2 µmol/kg

COc1cc2c(cc1OC)C(c1ccc(N)cc1)=Nn1c(C)nnc1C2
ED50 [1]: 44.7 µmol/kg | ED50 [2]: 59.9 µmol/kg

COc1cc2c(cc1OC)C(c1cccc(N)c1)=NN=C(S)C2
ED50 [1]: 9.1 µmol/kg | ED50 [2]: 18.8 µmol/kg

COc1ccc2c(c1)CC(=O)N(C)N=C2c1ccccc1
ED50 [1]: 99.1 µmol/kg | ED50 [2]: 117 µmol/kg

CC1=NN=C(c2ccc(N)cc2)c2cc3c(cc2C1)OCO3
ED50 [1]: 25.3 µmol/kg | ED50 [2]: 35.8 µmol/kg

CNC(=O)N1N=C(c2ccc(N)cc2)c2cc3c(cc2CC1=O)OCO3
ED50 [1]: 8.7 µmol/kg | ED50 [2]: 12.4 µmol/kg

COc1cc2c(cc1OC)C(c1ccccc1)=Nn1c(O)nnc1C2
ED50 [1]: 27.5 µmol/kg | ED50 [2]: 44.6 µmol/kg

COc1cc2c(cc1OC)C(c1ccccc1)=NN(C(C)=O)C(=O)C2
ED50 [1]: 72.1 µmol/kg | ED50 [2]: 101 µmol/kg

COc1cc2c(cc1OC)C(c1ccc(N)cc1)=NN(C)C(=S)C2
ED50 [1]: 20.3 µmol/kg | ED50 [2]: 29.8 µmol/kg

COc1cc2c(cc1OC)C(c1ccc(Br)cc1)=NN=C(S)C2
ED50 [1]: 33.3 µmol/kg | ED50 [2]: 52.1 µmol/kg

COc1cc2c(cc1OC)C(c1ccccc1)=NN=C(S)C2
ED50 [1]: 15 µmol/kg | ED50 [2]: 19.7 µmol/kg

CCCNC(=O)n1nc(-c2ccc(N)cc2)c2cc3c(cc2c1=O)OCO3
ED50 [1]: 6.82 µmol/kg | ED50 [2]: 15.8 µmol/kg

COc1cc2c(cc1OC)C(c1ccc(N(C(C)=O)C(C)=O)cc1)=NN(C(C)=O)C(=O)C2
ED50 [1]: 43.9 µmol/kg | ED50 [2]: 56.8 µmol/kg

COc1cc2c(O)nnc(-c3cccc(N)c3)c2cc1OC
ED50 [1]: 59.9 µmol/kg | ED50 [2]: 68.3 µmol/kg

COc1cc2c(cc1OC)C(c1ccc([N+](=O)[O-])cc1)=NN=C(S)C2
ED50 [1]: 69.8 µmol/kg | ED50 [2]: 93.4 µmol/kg

COc1cc2c(cc1OC)C(c1ccc(Cl)cc1)NCC2 (configuration not stated)
ED50 [1]: 19.3 µmol/kg | ED50 [2]: 20.1 µmol/kg

CN1N=C(c2ccccc2)c2cc3c(cc2CC1=O)OCO3
ED50 [1]: 70.4 µmol/kg | ED50 [2]: 82.5 µmol/kg

CN1N=C(c2ccc(N)cc2)c2cc3c(cc2CC1=O)OCO3
ED50 [1]: 29.5 µmol/kg | ED50 [2]: 41.1 µmol/kg

COc1cc2c(cc1OC)C(c1cccc([N+](=O)[O-])c1)NCC2 (configuration not stated)
ED50 [1]: 7.19 µmol/kg | ED50 [2]: 19.3 µmol/kg

COc1cc2c(cc1OC)C(c1ccccc1)=NN(C)C(=S)C2
ED50 [1]: 24.7 µmol/kg | ED50 [2]: 30.6 µmol/kg

COc1cc2c(cc1OC)C(c1ccc([N+](=O)[O-])cc1)NCC2 (configuration not stated)
ED50 [1]: 56.1 µmol/kg | ED50 [2]: 100 µmol/kg

COc1cc2c(cc1OC)C(c1cccc(N)c1)=Nn1c(O)nnc1C2
ED50 [1]: 13.1 µmol/kg | ED50 [2]: 20.1 µmol/kg

COc1cc2c(cc1OC)C(c1ccc(Cl)cc1)=NN(C)C(=O)C2
ED50 [1]: 38.6 µmol/kg | ED50 [2]: 41.2 µmol/kg

O=C1Cc2cc3c(cc2C(c2ccc(O)cc2)=NN1)OCO3
ED50 [1]: 49.6 µmol/kg | ED50 [2]: 52.3 µmol/kg

COc1cc2c(-c3cccc(N)c3)nn(C)c(=O)c2cc1OC
ED50 [1]: 55.2 µmol/kg | ED50 [2]: 63.7 µmol/kg

Nc1ccc(-c2nnc(O)c3cc4c(cc23)OCO4)cc1
ED50 [1]: 7.56 µmol/kg | ED50 [2]: 21.2 µmol/kg

Nc1ccc(C2=NNC(=O)Cc3cc4c(cc32)OCO4)cc1
ED50 [1]: 10.9 µmol/kg | ED50 [2]: 15.4 µmol/kg

CNC(=O)n1nc(-c2ccc(N)cc2)c2cc3c(cc2c1=O)OCO3
ED50 [1]: 16.8 µmol/kg | ED50 [2]: 23.4 µmol/kg

COc1cc2c(cc1OC)C(c1ccc(Br)cc1)NCC2 (configuration not stated)
ED50 [1]: 12.5 µmol/kg | ED50 [2]: 30.6 µmol/kg

COc1cc2c(cc1OC)C(c1ccc(Cl)cc1)=NNC(=O)C2
ED50 [1]: 75.3 µmol/kg | ED50 [2]: 102 µmol/kg

COc1cc2c(cc1OC)C(c1ccc(N)cc1)=NN=C(S)C2
ED50 [1]: 3.3 µmol/kg | ED50 [2]: 6.3 µmol/kg

COc1cc2c(cc1OC)C(c1ccc(Br)cc1)=NN(C)C(=S)C2
ED50 [1]: 60.4 µmol/kg | ED50 [2]: 105 µmol/kg

Nc1cccc(C2=NNC(=O)Cc3cc4c(cc32)OCO4)c1
ED50 [1]: 12.7 µmol/kg | ED50 [2]: 18 µmol/kg

SC1=NN=C(c2ccccc2)c2cc3c(cc2C1)OCO3
ED50 [1]: 18.8 µmol/kg | ED50 [2]: 23.8 µmol/kg

COc1cc2c(O)nnc(-c3cccc([N+](=O)[O-])c3)c2cc1OC
ED50 [1]: 75.5 µmol/kg | ED50 [2]: 81.7 µmol/kg

COc1cc2c(-c3cccc([N+](=O)[O-])c3)nn(C)c(=O)c2cc1OC
ED50 [1]: 80.3 µmol/kg | ED50 [2]: 110 µmol/kg

COc1ccc2c(c1)CC(=O)NN1C(c3ccccc3)=NOC21c1ccccc1 (configuration not stated)
ED50 [1]: 100 µmol/kg | ED50 [2]: 119 µmol/kg

COc1cc2c(cc1OC)C(c1ccc([N+](=O)[O-])cc1)=Nn1c(C)nnc1C2
ED50 [1]: 59.3 µmol/kg | ED50 [2]: 66.7 µmol/kg

COc1cc2c(O)nnc(-c3ccc(N)cc3)c2cc1OC
ED50 [1]: 52 µmol/kg | ED50 [2]: 60.5 µmol/kg

COc1ccc2c(c1)CC(=O)NN=C2c1ccccc1
ED50 [1]: 64.8 µmol/kg | ED50 [2]: 75.5 µmol/kg

COc1cc2c(cc1OC)C(c1ccc(N)cc1)=Nn1c(O)nnc1C2
ED50 [1]: 10.2 µmol/kg | ED50 [2]: 16.1 µmol/kg

COc1cc2c(cc1OC)C(c1ccc(N)cc1)=NNC(=O)C2
ED50 [1]: 12.6 µmol/kg | ED50 [2]: 15 µmol/kg

Nc1cccc(-c2nnc(O)c3cc4c(cc23)OCO4)c1
ED50 [1]: 15.7 µmol/kg | ED50 [2]: 23.3 µmol/kg

Oc1nnc(-c2ccccc2)c2cc3c(cc12)OCO3
ED50 [1]: 31.3 µmol/kg | ED50 [2]: 36.7 µmol/kg

COc1cc2c(cc1OC)C(c1ccc([N+](=O)[O-])cc1)=Nn1c(O)nnc1C2
ED50 [1]: 58.3 µmol/kg | ED50 [2]: 74.1 µmol/kg

COc1cc2c(cc1OC)C(c1cccc(N)c1)=NNC(=O)C2
ED50 [1]: 18.3 µmol/kg | ED50 [2]: 19.3 µmol/kg

COc1cc2c(cc1OC)C(c1cccc(N)c1)=NN(C)C(=O)C2
ED50 [1]: 30.6 µmol/kg | ED50 [2]: 36.8 µmol/kg

COc1cc2c(cc1OC)C(c1ccccc1)=NNC(=O)C2
ED50 [1]: 31.8 µmol/kg | ED50 [2]: 33.9 µmol/kg

COc1cc2c(cc1OC)C(c1ccccc1)=NN(C)C(=O)C2
ED50 [1]: 26.7 µmol/kg | ED50 [2]: 37.8 µmol/kg

COc1cc2c(cc1OC)C(c1ccc(N)cc1)=Nn1cnnc1C2
ED50 [1]: 48.3 µmol/kg | ED50 [2]: 57.3 µmol/kg

COc1cc2c(cc1OC)C(c1cccc([N+](=O)[O-])c1)=Nn1c(O)nnc1C2
ED50 [1]: 43.2 µmol/kg | ED50 [2]: 56.4 µmol/kg

COc1cc2c(cc1OC)C(c1ccc(F)cc1)=NNC(=O)C2
ED50 [1]: 57.2 µmol/kg | ED50 [2]: 78 µmol/kg

COc1cc2c(cc1OC)C(c1ccc(F)cc1)=Nn1c(O)nnc1C2
ED50 [1]: 21.8 µmol/kg | ED50 [2]: 32.1 µmol/kg

COc1cc2c(cc1OC)C(c1ccc(Cl)cc1)=NN=C(S)C2
ED50 [1]: 55 µmol/kg | ED50 [2]: 82.4 µmol/kg

O=C1Cc2cc3c(cc2C(c2ccccc2)=NN1)OCO3
ED50 [1]: 40.6 µmol/kg | ED50 [2]: 43.3 µmol/kg

COc1cc2c(cc1OC)C(c1ccc(Br)cc1)=NN(C)C(=O)C2
ED50 [1]: 38 µmol/kg | ED50 [2]: 63 µmol/kg

O=C1Cc2cc3c(cc2C(c2ccc(F)cc2)=NN1)OCO3
ED50 [1]: 63.8 µmol/kg | ED50 [2]: 89.8 µmol/kg
